The text below walks through data of US20210236445A1, “BACLOFEN AND ACAMPROSATE BASED THERAPY OF ALZHEIMER'S DISEASE IN PATIENTS HAVING LOST RESPONSIVENESS TO ACETYLCHOLINESTERASE INHIBITOR THERAPY” (priority 2018, published 2021).

Experiment [1] concerns Aβ25-35-induced spontaneous alternation deficits in mice. Kind of experiment: Spontaneous alternation performance (Y-maze) in Aβ25-35 ICV-injected mice. The experiment is classed as in vivo, Swiss mice. Conditions: for Effect on Aβ25-35-induced cognitive impairment, spontaneous alternation (Y-maze), after longer treatment / Effect on Aβ25-35-induced cognitive impairment, spontaneous alternation (Y-maze): Example A; for Effect on Aβ25-35-induced cognitive impairment, spontaneous alternation (Y-maze), after longer treatment: treatment alone from D20, tested D38 or D40; for Effect on Aβ25-35-induced cognitive impairment, spontaneous alternation (Y-maze): treatment alone per os from D20, eleven days, tested D30, donepezil 1 mg/Kg once a day or acamprosate/baclofen 0.2/3 mg/Kg twice a day. Here is the method: (§1) Male Swiss mice were anesthetized 5 minutes with isoflurane 2.5%. At Day 01, animals were injected intracerebroventricularly (ICV) through a 28-gauge stainless-steel needle, 4 mm long. An injection volume of 3 μl was delivered gradually within 30 s and the needle left in place for an additional 30 s before being removed. […] Homogeneous preparation of the Aβ25-35 peptide were performed according to the AMYLGEN's own procedure.
(§2) All animals received a per os gavage using an inox steel cannula (5 mL/Kg). All the treatments were administered under a volume calculated according to the individual body weight of each mouse (5 mL/Kg). Vehicle and donepezil (1 mg/Kg) administration were done once a day, and the mix Acamprosate/baclofen twice a day (0.2 mg/Kg and 3 mg/Kg, respectively).
(§3) In a first set of experiments (FIG. 1A), the treatment, donepezil (1 mg/Kg), was started 19 days (D20) after icy injection for 21 days (D40) (group 3 and 4). At D30 one group of animals treated with donepezil was administered with acamprosate and baclofen (0.2 mg/Kg and 3 mg/Kg, respectively), in addition of donepezil treatment (group 4).
(§4) In a second set of experiments (FIG. 1B). The treatment, donepezil (1 mg/kg) (Group 5) or the combination acamprosate and baclofen (0.2 mg/Kg and 3 mg/Kg, respectively) (group 7), was started 19 days (D20) after icy injection and maintained for 23 days (D42) in two groups of animals. In a third group of animals (group 6), initially treated with donepezil, treatment with donepezil was stopped at D30 and replaced with administration of acamprosate and baclofen (0.2 mg/Kg and 3 mg/Kg, respectively) until D42.
(§5) Mice were tested for spontaneous alternation performance in the Y-maze, an index of spatial working memory. The Y-maze was designed according to Itoh et al.,1993 (57) and Hiramatsu and Inoue, 1999 (58), and is made of grey polyvinylchloride. Each arm is 40 cm long, 13 cm high, 3 cm wide at the bottom, 10 cm wide at the top, and converging at an equal angle. Each mouse was placed at the end of one arm and allowed to move freely through the maze during an 8 min session. The series of arm entries, including possible returns into the same arm, were checked visually by an experimenter blind to treatment. An alternation is defined as entries into all three arms on consecutive occasions. The number of maximum alternations were therefore the total number of arm entries minus two and the percentage of alternation as calculated as (actual alternations / maximum alternations)×100. Calculated parameters consisted in the percentage of alternation (memory index) and the total number of arm entries (exploration index) (52-56).
In the first set of experiments (FIG. 1A), animals were tested after the beginning of the treatment at D30 and D38. In the second set of experiments (FIG. 1B), animals were tested after the beginning of the treatment, at D30 and D40.
(§6) All animals received a per os gavage using an inox steel cannula. Vehicle or Donepezil (1 mg/kg) were administered at D8 until D17; or at D20 until D30 or at D20 to D40 once a day. All the treatments were administered under a volume calculated according to the individual body weight of each mouse (5 mL/Kg).
as §5, with “8min” for “8 min”, “occasions.” for “occasions. The number of maximum alternations were therefore the total number of arm entries minus two and the percentage of alternation as calculated as (actual alternations / maximum alternations)×100. Calculated parameters consisted in the percentage of alternation (memory index) and the total number of arm entries (exploration index) (52-56).”

For experiment [2], the system named is Aβ25-35-induced step-through passive avoidance deficits in mice. The experiment can be described thus: Step-through passive avoidance test (STPA) in Aβ25-35 ICV-injected mice. Type of experiment: in vivo, Swiss mice. Here is the method:
as §1, §2, §3, §4
The guillotine door was initially closed during the training session. Each mouse was placed into the white compartment. After 5 s, the door was raised. […] The retention test was carried out 24 h after training. Each mouse was placed again into the white compartment. After 5 s, the door was raised.
as §6

The subject of experiment [3] is Aβ25-35-induced spontaneous alternation deficits in mice. The experiment can be described thus: Spontaneous alternation performance (Y-maze) in Aβ25-35 ICV-injected mice. The experiment is classed as in vivo, Swiss mice. Conditions: Example C.
The test system of experiment [4] is patient's cognitive function. Conditions: cited from earlier work.

Molecules are shown by their SMILES.

`COc1cc2c(cc1OC)C(=O)C(CC1CCN(Cc3ccccc3)CC1)C2` (stereo not drawn) [donepezil]: in experiment [1], the “Effect on Aβ25-35-induced cognitive impairment, spontaneous alternation (Y-maze), after longer treatment” value is reported as “totally lost” and the “Effect on Aβ25-35-induced cognitive impairment, spontaneous alternation (Y-maze)” value was “partially alleviated”. Moreover, in experiment [1] (listed as DNPz), the “Effect on Aβ25-35-induced cognitive impairment, spontaneous alternation (Y-maze), after longer treatment” value was “not sustained” and the “Effect on Aβ25-35-induced cognitive impairment, spontaneous alternation (Y-maze)” value is on record as “partial activity”. Further, in experiment [1] (Example B, 1 mg/Kg D20 until D40, tested at D30), the “Percentage drug effect in Y-maze at D30” value came out at 43%. Besides, the “Percentage drug effect in Y-maze at D38” value in experiment [1] (Example B, 1 mg/Kg D20 until D40, tested at D38, not statistically significant) stood at 25%. Besides, the “Recovery of Aβ25-35-induced cognitive impairment assessed by Y-maze” value in experiment [1] (Example B, 1 mg/Kg per os once a day started at D08 (to D17), tested D15) is given as “fully recover”. Besides, the “Activity in Y-maze, % of optimal activity” value in experiment [1] (Example B, 1 mg/kg administered D20 to D30, tested D28) is 44%. For the same compound, the “Effect on long-term memory, passive avoidance (step-through latency and escape latency)” value in experiment [2] (Example A, treatment alone D20 to D40 or D42, tested D39-40 or D41-42) was “partially restored long-term memory”. For the same compound, in experiment [2] (Example B, 1 mg/Kg started at D08 (to D17), tested D16-17), the “Recovery of Aβ25-35-induced cognitive impairment assessed by passive avoidance test” value is “fully recover”. For the same compound, the “Activity in passive avoidance test” value in experiment [2] (Example B, 1 mg/kg administered D20 to D30, tested D29-30) is “partially active”. Further, the “Fear conditioning memory assessed by STPA at D99/D100” value in experiment [2] (Example C, end of experiment, treatment until D100) is reported as “altered”. Besides, in experiment [3] (1 mg/Kg from D7, at D42), the “% of alternation in Y-maze at D42” value was determined as 47%. For the same compound, the “Difference of Y-maze effect from Sc.Aβ-vehicle animals” value in experiment [3] (1 mg/Kg from D7, between D21 and D28) is given as “not significantly different”. The “Y-maze activity after D48 until D100” value in experiment [3] (donepezil 1 mg/Kg only, D7 to D100) is on record as “inactivity was sustained”. The “Time after initiation of treatment at which cognitive function reaches its baseline level” value in experiment [4] (Alzheimer's patients) is given as 30 weeks. For the same compound, the “Period during which treatment improved the patient's cognitive function” value in experiment [4] (Alzheimer's patients, from initiation of treatment) is recorded as 12 weeks.
On to `CCN(C)C(=O)Oc1cccc([C@H](C)N(C)C)c1` [rivastigmine], for which the “Efficacy over time in Alzheimer's patients” value in experiment [4] (compared with donepezil studies) is given as “limited efficacy”.
